Results published in patent US8022102B2, “Unsaturated tetracyclic tetrahydrofuran derivatives” (Janssen Pharmaceutica, NV, priority 2004, dated 2011).

Tests used:
[1] = target: T1, human cloned 5-HT2C receptor (Homo sapiens, UniProt P28335); assay: In vitro binding affinity for 5-HT2C receptor (radioligand binding); conditions: human cloned 5-HT2C receptor, radioligand binding; read-out: h-5HT2C (converted)
T1 construct: expressed in transfected cells; host or cells: CHO cells
T1 sequence (P28335 33-458): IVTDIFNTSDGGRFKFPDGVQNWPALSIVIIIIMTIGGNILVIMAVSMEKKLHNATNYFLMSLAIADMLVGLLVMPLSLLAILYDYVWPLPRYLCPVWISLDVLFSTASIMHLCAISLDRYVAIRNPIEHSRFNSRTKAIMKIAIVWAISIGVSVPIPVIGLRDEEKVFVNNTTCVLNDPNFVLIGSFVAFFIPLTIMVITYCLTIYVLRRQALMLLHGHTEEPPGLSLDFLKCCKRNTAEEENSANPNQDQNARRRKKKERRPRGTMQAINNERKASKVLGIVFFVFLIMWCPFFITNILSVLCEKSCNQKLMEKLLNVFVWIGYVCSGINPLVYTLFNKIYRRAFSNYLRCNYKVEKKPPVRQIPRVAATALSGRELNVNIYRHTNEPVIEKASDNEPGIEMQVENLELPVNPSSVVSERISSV
Method: (§1) During the incubation, the radioligands bind to the receptor. When equilibrium of binding is reached, the receptor bound radioactivity is separated from the non-bound radioactivity, and the receptor bound activity is counted. The interaction of the test compounds with the receptors is assessed in competition binding experiments. Various concentrations of the test compound are added to the incubation mixture containing the tissue preparation and the radioligand. Binding of the radioligand will be inhibited by the test compound in proportion to its binding affinity and its concentration.

[2] = target: T2, NET (Rattus norvegicus, UniProt Q9WTR4); assay: In vitro determination of NET reuptake inhibition ([3H]Nixosetine binding, rat brain cortex); conditions: rat brain cortex, [3H]Nixosetine; read-out: NET Reuptake Inhibition (converted)
T2 construct: Cortex from rat brain was collected and homogenised; from tissue; host or cells: rat brain cortex
Method: Cortex from rat brain was collected and homogenised using an Ultra-Turrax T25 and a Dual homogeniser in ice-cold homogenising buffer containing Tris, NaCl and KCl (50 mM, 120 mM and 5 mM, respectively, pH 7.4) prior to dilution to an appropriate protein concentration optimised for specific and non-specific binding. […] Membrane-bound activity was detected by filtration through a Packard Filtermate harvester onto GF/B Unifilterplates, washed with ice-cold Tris-HCl buffer, containing NaCl and KCl (50 mM, 120 mM and 4 mM; pH 7.4; 6×0.5 ml). Filters were allowed to dry for 24 h before adding scintillation fluid. Scintillation fluid was allowed to saturate filters for 24 h before counting in a Topcount scintillation counter. Percentage specific bound and competition binding curves were calculated using S-Plus software (Insightful).

[3] = target: T3, human Dopamine D2L receptor (Homo sapiens, UniProt P14416); assay: In vitro binding affinity for human D2L receptor ([3H]Spiperone); conditions: human D2L receptor-transfected CHO cell membranes, [3H]Spiperone; read-out: h-D2L (converted)
T3 construct: expressed in transfected cells; host or cells: CHO cells
Method: Frozen membranes of human Dopamine D2L receptor-transfected CHO cells were thawed, briefly homogenised using an Ultra-Turrax T25 homogeniser and diluted in Tris-HCl assay buffer containing NaCl, CaCl2, MgCl2, KCl (50, 120, 2, 1, and 5 mM respectively, adjusted to pH 7.7 with HCl) to an appropriate protein concentration optimised for specific and non-specific binding. Radioligand [^3H]Spiperone (NEN, specific activity ˜70 Ci/mmol) was diluted in assay buffer at a concentration of 2 nmol/L. Prepared radioligand (50 μl), along with 50 μl of either the 10% DMSO control, Butaclamol (10^−6 mol/l final concentration), or compound of interest, was then incubated (30 min, 37° C.) with 400 μl of the prepared membrane solution. Membrane-bound activity was filtered through a Packard Filtermate harvester onto GF/B Unifilterplates and washed with ice-cold Tris-HCl buffer (50 mM; pH 7.7; 6×0.5 ml). Filters were allowed to dry before adding scintillation fluid and counting in a Topcount scintillation counter. Percentage specific bound and competition binding curves were calculated using S-Plus software (Insightful).

[4] = target: T4, human cloned 5-HT2A receptor (Homo sapiens, UniProt P28223); assay: In vitro binding affinity for 5-HT2A receptor (radioligand binding); conditions: human cloned 5-HT2A receptor, radioligand binding; read-out: h-5HT2A (converted)
T4 construct: expressed in transfected cells; host or cells: L929 cells
Method: as §1, with “concentration. The affinities of the compounds for the 5-HT2 receptors were measured by means of radioligand binding studies conducted with: (a) human cloned 5-HT2A receptor, expressed in L929 cells using [^125I]R91150 as radioligand and (b) human cloned 5-HT2C receptor, expressed in CHO cells using [^3H]mesulergine as radioligand.” for “concentration.”

T4 sequence (P28223 whole entry): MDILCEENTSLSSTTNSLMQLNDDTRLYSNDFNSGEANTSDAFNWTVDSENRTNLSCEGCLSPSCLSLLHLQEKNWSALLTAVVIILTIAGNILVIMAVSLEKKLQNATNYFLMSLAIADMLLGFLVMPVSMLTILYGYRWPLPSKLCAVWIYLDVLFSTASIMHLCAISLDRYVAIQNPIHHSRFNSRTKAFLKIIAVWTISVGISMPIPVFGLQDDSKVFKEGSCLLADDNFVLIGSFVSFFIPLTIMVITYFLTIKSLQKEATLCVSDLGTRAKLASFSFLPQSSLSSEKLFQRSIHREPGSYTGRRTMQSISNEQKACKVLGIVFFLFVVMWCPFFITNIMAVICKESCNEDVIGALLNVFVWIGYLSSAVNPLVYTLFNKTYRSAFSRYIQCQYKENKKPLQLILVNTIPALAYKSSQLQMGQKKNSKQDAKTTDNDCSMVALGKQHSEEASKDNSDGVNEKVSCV
T3 sequence (P14416 whole entry): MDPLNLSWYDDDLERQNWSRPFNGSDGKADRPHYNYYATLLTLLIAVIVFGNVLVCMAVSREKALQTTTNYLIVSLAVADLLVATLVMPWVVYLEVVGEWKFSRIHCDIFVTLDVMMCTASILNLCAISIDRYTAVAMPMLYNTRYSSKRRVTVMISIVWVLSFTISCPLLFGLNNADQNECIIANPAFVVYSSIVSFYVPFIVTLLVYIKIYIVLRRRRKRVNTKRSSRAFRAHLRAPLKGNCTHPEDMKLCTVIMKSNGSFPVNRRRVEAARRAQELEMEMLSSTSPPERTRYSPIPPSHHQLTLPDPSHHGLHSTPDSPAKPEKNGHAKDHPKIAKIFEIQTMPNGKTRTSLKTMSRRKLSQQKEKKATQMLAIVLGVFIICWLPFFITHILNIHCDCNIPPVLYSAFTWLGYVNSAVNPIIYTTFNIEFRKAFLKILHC
T2 sequence (Q9WTR4 1-597): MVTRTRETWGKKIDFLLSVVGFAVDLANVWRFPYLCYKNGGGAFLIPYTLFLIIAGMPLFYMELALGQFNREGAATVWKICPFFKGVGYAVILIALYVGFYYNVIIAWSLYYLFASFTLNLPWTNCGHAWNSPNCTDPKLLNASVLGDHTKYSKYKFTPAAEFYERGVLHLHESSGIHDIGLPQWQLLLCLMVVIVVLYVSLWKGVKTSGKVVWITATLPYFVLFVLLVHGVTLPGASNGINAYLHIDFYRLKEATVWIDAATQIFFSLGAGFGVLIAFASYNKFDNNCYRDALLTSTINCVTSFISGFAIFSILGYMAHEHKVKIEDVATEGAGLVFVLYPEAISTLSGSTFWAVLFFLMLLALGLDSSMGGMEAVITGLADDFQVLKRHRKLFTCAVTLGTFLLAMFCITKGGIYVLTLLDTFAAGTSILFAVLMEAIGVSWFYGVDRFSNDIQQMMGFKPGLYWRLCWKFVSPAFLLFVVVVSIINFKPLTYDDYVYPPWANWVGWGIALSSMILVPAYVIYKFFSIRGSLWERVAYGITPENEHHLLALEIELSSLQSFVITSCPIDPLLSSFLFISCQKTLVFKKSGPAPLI

IC50 [1] [nM]	IC50 [2] [nM]	IC50 [3] [nM]	IC50 [4] [nM]	Structure (SMILES)
39.8	> 10000	251		O=C(Nc1ccc(F)cc1)N1CCN(CC2CC3=C(O2)c2cc(F)ccc2Oc2ccccc23)CC1 (stereo not drawn) [Compound 86]
10		251	10	O=C(Nc1ccccc1)N1CCN(CC2CC3=C(O2)c2cc(F)ccc2Cc2ccccc23)CC1 (stereo not drawn) [Compound 83]
31.6		501	6.31	COc1ccc(NC(=O)N2CCN(CC3CC4=C(O3)c3cc(F)ccc3Oc3ccccc34)CC2)cc1 (stereo not drawn) [Compound 90]
7.94		200	3.98	CC(=O)N1CCN(CC2CC3=C(O2)c2cc(F)ccc2Cc2ccccc23)CC1 (stereo not drawn) [Compound 53]
25.1		7940	31.6	COc1ccccc1NC(=O)CN(C)C[C@H]1CC2=C(O1)c1cc(F)ccc1Cc1ccccc12 [Compound 119]
3.98		1260	10	CN(CC(N)=O)C[C@H]1CC2=C(O1)c1cc(F)ccc1Cc1ccccc12 [Compound 115]
2.51		1260	3.16	CN(Cc1nnn[nH]1)C[C@H]1CC2=C(O1)c1cc(F)ccc1Cc1ccccc12 [Compound 125]
158	1580	1580		O=C(C1CC1)N1CCN(CC2CC3=C(O2)c2cc(F)ccc2Oc2ccccc23)CC1 (stereo not drawn) [Compound 58]
20		200	10	CCOC(=O)N1CCN(CC2CC3=C(O2)c2cc(F)ccc2Cc2ccccc23)CC1 (stereo not drawn) [Compound 61]
3.16		39.8	2	COc1ccc(NC(=O)N2CCN(CC3CC4=C(O3)c3cc(F)ccc3Cc3ccccc34)CC2)cc1 (stereo not drawn) [Compound 89]
100		251	12.6	COc1ccc(C(=O)N2CCN(CC3CC4=C(O3)c3cc(F)ccc3Oc3ccccc34)CC2)cc1 (stereo not drawn) [Compound 74]
6.31		3160	12.6	CNC(=N)CN(C)CC1CC2=C(O1)c1cc(F)ccc1Cc1ccccc12 (stereo not drawn) [Compound 138]
31.6		> 10000	6.31	COc1ccccc1NC[C@@H]1CC2=C(O1)c1cc(F)ccc1Cc1ccccc12 [Compound 106]
10		5.01	3.16	OCCN1CCN(CC2CC3=C(O2)c2cc(F)ccc2Sc2ccccc23)CC1 (stereo not drawn) [Compound 42]
100		794	79.4	CS(=O)(=O)N1CCN(CC2CC3=C(O2)c2cc(F)ccc2Oc2ccccc23)CC1 (stereo not drawn) [Compound 45]
1.58		794	3.16	CN(CC(=O)c1ccccc1)C[C@H]1CC2=C(O1)c1cc(F)ccc1Cc1ccccc12 [Compound 114]
10		316	3.98	CCCC(=O)N1CCN(CC2CC3=C(O2)c2cc(F)ccc2Cc2ccccc23)CC1 (stereo not drawn) [Compound 55]
100		1260	100	CCCC(=O)N1CCN(CC2CC3=C(O2)c2cc(F)ccc2Oc2ccccc23)CC1 (stereo not drawn) [Compound 56]
5.01		316	2	COC(=O)CC(=O)N1CCN(CC2CC3=C(O2)c2cc(F)ccc2Cc2ccccc23)CC1 (stereo not drawn) [Compound 59]
20		316	3.98	O=C(C1CC1)N1CCN(CC2CC3=C(O2)c2cc(F)ccc2Cc2ccccc23)CC1 (stereo not drawn) [Compound 57]
10		794	50.1	CN(CC(=O)Nc1ccccc1)C[C@H]1CC2=C(O1)c1cc(F)ccc1Cc1ccccc12 [Compound 118]
2		50.1	2	CNC(=O)/C=C/CN(C)C[C@H]1CC2=C(O1)c1cc(F)ccc1Cc1ccccc12 [Compound 123]

The remaining lines, values behind:

Structure (SMILES)	IC50 [1] [nM]	IC50 [2] [nM]	IC50 [3] [nM]	IC50 [4] [nM]
Fc1ccc2c(c1)C1=C(CC(CN3CCC4(CC3)OCCO4)O1)c1ccccc1C2 (stereo not drawn) [Compound 39]	50.1	> 10000	50.1	
CCNCC1CC2=C(O1)c1cc(F)ccc1Cc1ccccc12 (single isomer, unassigned) [Compound 16]	12.6	158	316	
CNCC1CC2=C(O1)c1ccccc1C(C)c1ccccc12 (stereo not drawn) [Compound 10]	25.1	50.1	1580	
CN(C)C1CCN(CC2CC3=C(O2)c2cc(F)ccc2Cc2ccccc23)C1 (stereo not drawn) [Compound 35]	15.8	> 10000	39.8	
CNCC1CC2=C(O1)c1cc(F)ccc1C(C)c1ccccc12 (stereo not drawn) [Compound 8]	10		2000	31.6
CCNCC1CC2=C(O1)c1cc(Br)ccc1Cc1ccccc12 (stereo not drawn) [Compound 17]	1.26	100	25.1	
CCNCC1CC2=C(O1)c1cc(F)ccc1Sc1ccccc12 (stereo not drawn) [Compound 18]	1.26		15.8	0.398
OC1CCCN(CC2CC3=C(O2)c2cc(F)ccc2Cc2ccccc23)C1 (stereo not drawn) [Compound 37]	2		20	1
OCCNCC1CC2=C(O1)c1cc(Br)ccc1Cc1ccccc12 (stereo not drawn) [Compound 20]	1.58	501	31.6	
OC1CCN(CC2CC3=C(O2)c2cc(F)ccc2Cc2ccccc23)C1 (stereo not drawn) [Compound 33]	0.794		39.8	0.794
CN(C)C(=O)N1CCN(CC2CC3=C(O2)c2cc(F)ccc2Cc2ccccc23)CC1 (stereo not drawn) [Compound 75]	316		794	50.1
O=S(=O)(Cc1ccccc1)N1CCN(CC2CC3=C(O2)c2cc(F)ccc2Oc2ccccc23)CC1 (stereo not drawn) [Compound 52]	200		158	100
O=S(=O)(Cc1ccccc1)N1CCN(CC2CC3=C(O2)c2cc(F)ccc2Cc2ccccc23)CC1 (stereo not drawn) [Compound 51]	200		100	79.4
OCCC1CCN(CC2CC3=C(O2)c2cc(F)ccc2Cc2ccccc23)CC1 (stereo not drawn) [Compound 38]	1.26		2	0.316
CCOC(=O)CNC(=O)N1CCN(CC2CC3=C(O2)c2cc(F)ccc2Oc2ccccc23)CC1 (stereo not drawn) [Compound 82]	158		1580	39.8
CNCC1CC2=C(O1)c1cc(Br)ccc1Cc1ccccc12 (stereo not drawn) [Compound 5]	0.794		31.6	0.794
OCCNCC1CC2=C(O1)c1cc(F)ccc1Cc1ccccc12 (stereo not drawn) [Compound 19]	1		63.1	1.58
COc1cc2c(cc1OC)CN(CC1CC3=C(O1)c1cc(F)ccc1Cc1ccccc13)CC2 (stereo not drawn) [Compound 40]	2.51		50.1	6.31
CN(C)CC1CC2=C(O1)c1ccccc1Oc1ccccc12 (stereo not drawn) [Compound 25]	20		1260	63.1
